From patent publication US20170022201A1, “MACROCYLIC PYRIDINE DERIVATIVES” (Janssen Pharmaceutica NV, priority 2014, published 2017)

Experiments:
[1] = target: T1, EF2K (Homo sapiens, UniProt O00418); assay: Biochemical EF2K lysate-based kinase assay (AlphaLISA p-eEF2 Thr56); settings: LN-229 cell lysates, 10 mM ATP, pH 6.6; pIC50 = -log IC50 (M); read-out: eEF2K_C_alphalisa pIC50 (converted)
T1 construct: host or cells: LN-229 glioblastoma cell lysate
T1 sequence (O00418 1-725): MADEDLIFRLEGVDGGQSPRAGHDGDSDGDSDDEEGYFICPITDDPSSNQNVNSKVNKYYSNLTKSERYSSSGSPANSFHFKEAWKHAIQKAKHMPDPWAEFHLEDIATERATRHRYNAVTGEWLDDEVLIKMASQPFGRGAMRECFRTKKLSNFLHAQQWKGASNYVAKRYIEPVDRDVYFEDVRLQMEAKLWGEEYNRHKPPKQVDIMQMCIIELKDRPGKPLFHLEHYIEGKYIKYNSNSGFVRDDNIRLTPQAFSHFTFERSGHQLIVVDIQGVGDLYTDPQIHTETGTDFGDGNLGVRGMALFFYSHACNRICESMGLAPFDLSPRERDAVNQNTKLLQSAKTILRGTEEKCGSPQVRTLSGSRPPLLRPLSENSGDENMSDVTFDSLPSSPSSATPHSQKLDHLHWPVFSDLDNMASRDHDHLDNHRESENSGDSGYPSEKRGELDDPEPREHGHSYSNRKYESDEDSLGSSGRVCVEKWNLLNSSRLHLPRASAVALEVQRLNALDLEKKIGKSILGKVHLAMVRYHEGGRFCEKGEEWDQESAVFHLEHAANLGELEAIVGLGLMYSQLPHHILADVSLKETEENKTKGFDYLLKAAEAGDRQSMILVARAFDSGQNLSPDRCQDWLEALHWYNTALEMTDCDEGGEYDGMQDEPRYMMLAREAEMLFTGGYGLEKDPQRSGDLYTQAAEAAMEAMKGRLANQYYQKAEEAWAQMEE
Source text: LN-229 cells were purchased from ATCC (CRL-2611); these are glioblastoma cells. Cell lysates from LN229 were used in this kinase assay to provide both the kinase and the substrate (EF2). The AlphaLISA p-eEF2 (Thr56) detection assay was developed using a sandwich assay format with two specific antibodies recognizing different epitopes of the target, including one antibody against the phosphorylation site of interest. One anti-eEF2 antibody was conjugated onto AlphaLISA Acceptor beads, while the second antibody was biotinylated and captured by streptavidin coated Donor beads.
Compound was mixed with LN-229 cell lysates in the presence of a kinase buffer (e.g. HEPES) at a pH of 6.6, containing 10 mM Mg^2+ (e.g. magnesium acetate) and 10 mM adenosine-tri-phosphate (ATP) and incubated at room temperature for 15 minutes. The kinase reaction was stopped with excess ethylenediaminetetraacetic acid disodium salt and the biotinylated-anti phospho eEF2 antibody (3 nM) was added for 1 hour. Then the anti-EF2 acceptor beads (10 μg/ml) as well as the streptavidin coated donor beads (20 μg/ml) were added for 1 hour, and the AlphaLISA signal was measured in an Envision instrument once, left overnight, and measured again for the final read.

[2] = target: T2, eEF2K (Homo sapiens, UniProt O00418); assay: EF2K cell-based assay (P-EF2 AlphaLISA, 2-deoxyglucose stimulated MCF10A cells); settings: 2.5 mM 2-deoxyglucose 4 h, phosphorylation of EF2 at Thr 56, pIC50 = -log IC50 (M), read-out: eEF2K_C_PThr56 pIC50 (converted)
T2 construct: in the immortalized epithelial breast cell lines, MCF10A; host or cells: MCF10A immortalized breast epithelial cells
T2 sequence (O00418 1-725): T1 sequence (O00418 1-725)
Procedure: In this assay, 2.5 mM 2-deoxyglucose was used to deplete intracellular ATP and activate 5′ adenosine monophosphate-activated protein kinase (AMPK) in the immortalized epithelial breast cell lines, MCF10A. MCF 10A cells were purchased from ATCC (CRL-10317).
MCF10A cells are seeded at a density of 1.25×10^5 Cells/ml at 100 μl/well in a 96-well plate and incubated for 24 hours (37° C., 5% CO2). Compound is added for 1 hour, and cell are stimulated with 2.5 mM of 2-deoxy-glucose for 4 hours. Medium is then removed, and cells are lysed in an ice-cold buffer M-PER (Thermo Scientific, 78501), containing protease and phosphatase inhibitors. P-EF2 levels are determined in these lysates using the P-EF2 AlphaLISA described above.

[3] = target: PIK3C3 lipid kinase (Homo sapiens, UniProt Q8NEB9); assay: Biochemical Vps34 lipid kinase assay (ADP-Glo); settings: 20 μM ATP; for remaining activity at 1 µM: 1 h, read-out: VPS34_1microM_%ofcntrl; for remaining activity at 1 µM / VPS34_1microM_%ofcntrl: single dose 1 μM, residual activity compared to control (DMSO); for IC50: serial dilution 10 μM to 0.3 nM, pIC50 = -log IC50 (M)
PIK3C3 lipid kinase, sequence (Q8NEB9 whole entry): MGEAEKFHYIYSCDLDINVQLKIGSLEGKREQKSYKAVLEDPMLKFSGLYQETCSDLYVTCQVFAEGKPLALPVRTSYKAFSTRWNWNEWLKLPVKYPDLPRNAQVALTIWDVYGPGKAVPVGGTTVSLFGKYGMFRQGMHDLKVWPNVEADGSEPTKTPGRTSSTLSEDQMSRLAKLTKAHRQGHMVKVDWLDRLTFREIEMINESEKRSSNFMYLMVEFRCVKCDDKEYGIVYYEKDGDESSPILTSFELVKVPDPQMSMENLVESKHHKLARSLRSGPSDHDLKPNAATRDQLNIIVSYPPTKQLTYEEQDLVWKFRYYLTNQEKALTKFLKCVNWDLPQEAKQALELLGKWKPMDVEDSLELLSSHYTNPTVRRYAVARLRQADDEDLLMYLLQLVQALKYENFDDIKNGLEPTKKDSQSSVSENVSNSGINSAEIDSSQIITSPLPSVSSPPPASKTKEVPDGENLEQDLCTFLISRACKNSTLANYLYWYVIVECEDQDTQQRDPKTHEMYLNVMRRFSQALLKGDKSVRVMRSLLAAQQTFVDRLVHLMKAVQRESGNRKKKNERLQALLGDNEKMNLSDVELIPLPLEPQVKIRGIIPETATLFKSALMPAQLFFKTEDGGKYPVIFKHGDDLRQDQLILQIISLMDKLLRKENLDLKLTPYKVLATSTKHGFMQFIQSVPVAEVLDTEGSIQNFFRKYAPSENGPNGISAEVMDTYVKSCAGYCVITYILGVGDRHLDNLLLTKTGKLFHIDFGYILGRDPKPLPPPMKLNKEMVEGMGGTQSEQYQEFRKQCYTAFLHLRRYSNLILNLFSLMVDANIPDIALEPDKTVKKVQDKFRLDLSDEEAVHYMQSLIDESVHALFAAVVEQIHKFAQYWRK
Procedure: A non-radiometric kinase assay (ADP-Glo™ Assay, Promega, Madison, Wi, USA) was used for measuring the kinase activity of the PIK3C3 lipid kinase. All kinase assays were performed in 96-well half-area microtiter plates in a 25 μl reaction volume. The reaction cocktail was pipetted in 3 steps in the following order: • 10 μl of ATP solution (in assay buffer, see below) • 5 μl of test sample in 5% DMSO 10 μl of enzyme/substrate mixture
All lipid kinase assays contained 50 mM HEPES (4-(2-hydroxyethyl)-1-piperazineethanesulfonic acid)—NaOH, pH 7.5, 1 mM EGTA ((ethylene glycol tetraacetic acid), 100 mM NaCl, 0.03% CHAPS (3-[(3-Cholamidopropyl) dimethylammonio]-1-propanesulfonate), 2 mM DTT (Dithiothreitol), 20 μM ATP (corresponding to the apparent ATP-Km), kinase (7.6 nM) and substrate (50 μM). The assay for PIK3C3 additionally contained 3 mM MnCl2.
The reaction cocktails were incubated at 30° C. for 60 minutes. The reaction was stopped with 25 μl ADP-Glo™ reagent per well. Plates were incubated for 40 minutes at room temperature, followed by addition of 50 μl kinase detection reagent per well and incubation for 60 minutes at room temperature. Signal was determined with a microplate luminescence reader (Victor, Perkin Elmer). The assay was either performed using a single dose of compound (1 μM final concentration in the assay reaction) with resulting data expressed as residual activity compared to control (DMSO), or using a serial (half-log) dilution of compounds starting at 10 μM and down to 0.3 nM (final concentrations in the assay) with data expressed as the pIC50.

Structure (SMILES) | IC50 [1] [M] | IC50 [2] [M] | remaining activity at 1 µM [3] [%] | IC50 [3] [M] | VPS34_1microM_%ofcntrl [3] [%]
CC1CN2CC(=O)NCCCNc3ncc(cn3)-c3ccnc(c3)Nc3cccc(c3)CN1C(C)C2 (centres unmarked) [Compound 34] | 3.31e-07 | ~2.63e-06 | 23.5 | 3.63e-07 | –
CC1CN2Cc3cccc(c3)Nc3cc(ccn3)-c3cnc(nc3)NCCCNC(=O)CN1CC2C (centres unmarked) [Compound 35] | 6.46e-08 | 2.45e-07 | 20.9 | 2.95e-07 | –
CC1CN2CCN1Cc1cccc(c1)Nc1cc(ccn1)-c1cnc(nc1)NCCCNC(=O)C2 (centres unmarked) [Compound 36] | 1.62e-08 | 9.77e-07 | – | 7.24e-07 | –
O=C1CN2CCN(CC2)Cc2cccc(c2)Nc2cc(ccn2)-c2ccc(nn2)NCCCN1 [Compound 37] | ~2.45e-05 | > 3.02e-05 | 84.5 | – | –
CN1CCCN(C)c2ncc(cn2)-c2ccnc(c2)Nc2cccc(c2)CN2CCN(CC2)CC1=O [Compound 38] | 8.51e-08 | > 3.02e-05 | 43.3 | – | –
O=C1CN2CCN(CC2)Cc2cccc(c2)Nc2cc(ccn2)-c2cnc(cn2)NCCCN1 [Compound 39] | 2.75e-07 | 1.23e-05 | 45.7 | – | –
CC1CN2CCN1Cc1cccc(c1)Nc1cc(ccn1)-c1cnc(nc1)NCCCNC(=O)C2 (centres unmarked) [Compound 40] | 1.62e-07 | ~5.89e-06 | 11 | 2.63e-07 | –
O=C1CN2CC3CCC(C2)N3Cc2cccc(c2)Nc2cc(ccn2)-c2cnc(nc2)NCCCN1 [Compound 41] | 1.05e-07 | 1.7e-06 | 23.3 | 7.41e-07 | –
O=C1CN2C3CCC2CN(Cc2cccc(c2)Nc2cc(ccn2)-c2cnc(nc2)NCCCN1)C3 [Compound 42] | 9.77e-08 | ~2.29e-06 | – | 7.08e-07 | –
O=C1CN2CCN(Cc3cccc(c3)Nc3cc(ccn3)-c3cnc(nc3)N3CCCC3CCN1)C(CO)C2 (centres unmarked) [Compound 44] | 2.45e-08 | 8.71e-06 | – | 1.55e-06 | –
O=C1CN2CCN(Cc3cccc(c3)Nc3cc(ccn3)-c3cnc(nc3)N3CCCC3CCN1)C(CO)C2 (centres unmarked) [Compound 46] | 1.32e-08 | 6.46e-07 | – | 2.34e-06 | –
CC1CN2CCN1Cc1cccc(c1)Nc1cc(ccn1)-c1cnc(nc1)N1CCCC1CCNC(=O)C2 (centres unmarked) [Compound 47] | 8.51e-09 | 4.17e-07 | – | 9.12e-06 | –
CC1CN2CCN1Cc1cccc(c1)Nc1cc(ccn1)-c1cnc(nc1)N1CCCC1CCNC(=O)C2 (centres unmarked) [Compound 48] | 7.94e-08 | 3.16e-06 | 44.1 | – | –
O=C1NCCC2CC(O)CN2c2ncc(cn2)-c2ccnc(c2)Nc2cccc(c2F)CN2CCN(CC2)C12CC2 (centres unmarked) [Compound 53] | 4.07e-09 | 8.51e-08 | – | 1.78e-07 | –
O=C1CN2CCN(CC2)Cc2cccc(c2)Nc2cc(ccn2)-c2cnc(nc2)N2CC(O)CC2CCN1 (centres unmarked) [Compound 54] | 1.1e-08 | 7.94e-07 | – | 9.77e-06 | –
O=C1CN2CCN(CC2)Cc2cccc(c2)Nc2cc(ccn2)-c2cnc(nc2)N2CC(O)CC2CCN1 (centres unmarked) [Compound 55] | 8.51e-09 | 7.76e-07 | 29.6 | 5.5e-07 | –
O=C1NCCC2CC(O)CN2c2ncc(cn2)-c2ccnc(c2)Nc2cccc(c2)CN2CCN(CC2)C12CC2 (centres unmarked) [Compound 56] | 3.39e-09 | 3.02e-07 | – | 2.63e-07 | –
O=C1NCCC2CC(O)CN2c2ncc(cn2)-c2ccnc(c2)Nc2cccc(c2)CN2CCN(CC2)C12CC2 (centres unmarked) [Compound 57] | 1.02e-08 | 3.09e-07 | – | 5.01e-06 | –
CC1CN2CCN1Cc1cccc(c1)Nc1cc(ccn1)-c1cnc(nc1)N1CC(O)CC1CCNC(=O)C2 (centres unmarked) [Compound 59] | 3.47e-08 | 8.51e-07 | – | 4.17e-07 | –
CC1CN2CCN1Cc1cccc(c1)Nc1cc(ccn1)-c1cnc(nc1)N1CC(O)CC1CCNC(=O)C2 (centres unmarked) [Compound 60] | 6.61e-08 | 4.79e-06 | 86.8 | – | –
CC1CN2CCN1Cc1cccc(c1)Nc1cc(ccn1)-c1cnc(nc1)N1CC(O)CC1CCNC(=O)C2 (centres unmarked) [Compound 61] | 1.26e-08 | 4.27e-07 | – | – | 80.70
CC1CN2CCN1Cc1cccc(c1)Nc1cc(ccn1)-c1cnc(nc1)N1CC(O)CC1CCNC(=O)C2 (centres unmarked) [Compound 62] | 5.5e-09 | 8.51e-08 | – | 1.23e-06 | –
O=C1CN2CCN(CC2)Cc2cccc(c2)Nc2cc(ccn2)-c2ccc(nc2)NCCCN1 [Compound 67] | ~3.55e-07 | 3.98e-06 | 34 | – | –
CN1CCCN(C)c2ccc(cn2)-c2ccnc(c2)Nc2cccc(c2)CN2CCN(CC2)CC1=O [Compound 68] | 5.13e-07 | > 3.02e-05 | – | 4.68e-06 | –
CN1CCCNC(=O)CN2CCN(CC2)Cc2cccc(c2)Nc2cc(ccn2)-c2ccc1nc2 [Compound 72] | 2.88e-07 | 5.89e-06 | 50.8 | – | –
O=C1CN2CCN(CC2)C2(CC2)c2cccc(c2)Nc2cc(ccn2)-c2cnc(nc2)NCCCN1 [Compound 73] | 5.25e-06 | > 1e-05 | – | > 1e-05 | –
CC1(C)c2cccc(c2)Nc2cc(ccn2)-c2cnc(nc2)NCCCNC(=O)CN2CCN1CC2 [Compound 74] | 1.2e-07 | 1.51e-06 | 70.1 | – | –
N#CC1CC2CCNC(=O)CN3CCN(CC3)Cc3cccc(c3)Nc3cc(ccn3)-c3cnc(nc3)N2C1 (centres unmarked) [Compound 77] | 4.27e-08 | 3.8e-06 | – | – | 86.17
N#CC1CC2CCNC(=O)CN3CCN(CC3)Cc3cccc(c3)Nc3cc(ccn3)-c3cnc(nc3)N2C1 (centres unmarked) [Compound 78] | 3.72e-08 | 2.24e-06 | – | – | 43.17
[N-]=[N+]=N[C@H]1C[C@H]2CCNC(=O)C3(CC3)N3CCN(CC3)Cc3cccc(c3)Nc3cc(ccn3)-c3cnc(nc3)N2C1 [Compound 83] | 8.71e-09 | 6.61e-07 | 42.3 | – | –
